Data on 17 compounds can be found in US10800784B2, “Nitrogen-containing heterocyclic amide compound and pharmaceutical use thereof” (Japan Tobacco Inc., priority 2018, dated 2020).

One assay concerns the target human PDHK1 (hPDHK1) (Homo sapiens (Human), UniProt Q15118). The experiment in a line: Inhibitory action of PDHK1 activity in vitro (residual PDH activity after PDHK reaction). The note with it: for IC50: PDH/hPDHK1 complex solution, PDHK reaction at room temperature for 45 min, NADH absorbance at 340 nm, read-out: hPDK1 IC50; for inhibition at 0.003 µM: at 3 nmol/L, shown when IC50 value could not be calculated, read-out: hPDHK1 inhibitory rate at the lowest concentration of the test compound. The class given is biochemical. The method, then: (§1) The inhibitory action of PDHK activity was assessed indirectly by measuring the residual PDH activity after PDHK reaction in the presence of a test compound.
(Inhibitory Action of PDHK1 Activity)
In the case of human PDHK1 (hPDHK1, NCBI Reference Database Accession number NM_002610.3), a 1.3 kbp fragment encoding this protein was isolated from human liver cDNA by polymerase chain reaction (PCR). Modified hPDHK1 cDNA wherein FLAG-Tag sequence was added to the N terminus was prepared by PCR and ligated to the NdeI/EcoRI site of pET-17b vector (Merck MGaA, model number 69663-3). The recombinant construct was transformed into Escherichia coli DH5a (TOYOBO, model number DNA-903). The recombinant clones were identified, and plasmid DNA was isolated and subjected to the DNA sequence analysis. One clone which had the expected nucleic acid sequence was selected for expression work.
For expression of hPDHK1 activity, Escherichia coli strain BL21(DE3) cells (Merck KGaA, model number 69450-4) were transformed with the pET17b vector containing modified hPDHK1 cDNA. The Escherichia coli were grown to an optical density 0.6 ([…]) at 30° C. Protein expression was induced by the addition of 500 μmol/L isopropyl-β-thiogalactopyranoside. The Escherichia coli were cultured at 20° C. for 17-18 hr and harvested by centrifugation.
The harvested Escherichia coli was resuspended in a suspension buffer (20 mmol/L N-(2-hydroxyethyl)piperazine-N′-2-ethanesulfonic acid-sodium hydroxide (HEPES-NaOH), 500 mmol/L sodium chloride, 1% ethylene glycol, and 0.1% polyoxyethylene-polyoxypropylene block copolymer (Pluronic F-68), complete, EDTA-free (pH 8.0)) and disrupted by a microfluidizer M-110H (MIZUHO INDUSTRIAL CO., LTD.) or ultrasonication. The precipitate was removed by centrifugation and the supernatant was added to DDDDK-tagged Protein PURIFICATION GEL (MBL, model number 3329). DDDDK-tagged Protein PURIFICATION GEL was washed with a washing buffer (20 mmol/L HEPES-NaOH, 500 mmol/L sodium chloride, 1% ethylene glycol, 0.1% pluronic F-68 (pH 8.0)) and the bound protein was eluted with elution buffer 1 (20 mmol/L HEPES-NaOH, 100 μg/mL peptide (amino acid sequence DYKDDDDK) (SEQ ID NO: 1), 500 mmol/L sodium chloride, 1% ethylene glycol, 0.1% pluronic F-68 (pH 8.0)).
The eluted fractions containing FLAG-Tagged protein were pooled, concentrated by an ultrafiltration method, added to a gel filtration column (HiLoad 26/60 Superdex 200 (GE Healthcare, model number 17-1070-01)), and eluted with elution buffer 2 (20 mmol/L HEPES-NaOH, 150 mmol/L sodium chloride, 0.5 mmol/L ethylenediaminetetraacetic acid (EDTA), 1% ethylene glycol, 0.1% pluronic F-68 (pH 8.0)). The eluted fractions were pooled and preserved at −80° C.
0.025 U/mL PDH (porcine heart PDH complex, Sigma P7032) and 0.5 μg/mL hPDHK1 were mixed in an assay buffer (50 mmol/L 3-morpholinopropanesulfonic acid (pH 7.0), 20 mmol/L dipotassium hydrogen phosphate, 60 mmol/L potassium chloride, 2 mmol/L magnesium chloride, 0.4 mmol/L EDTA, 0.2% poloxamer, 2 mmol/L dithiothreitol), and the mixture was incubated at 4° C. overnight to obtain a PDH/hPDHK1 complex solution. In the assay buffer, 0.025 U/mL PDH was mixed and incubated at 4° C. overnight to prepare a PDH solution.
The test compounds were diluted with dimethyl sulfoxide (DMSO). To measure an inhibitory action of the test compound on the PDHK activity in the PDH/hPDHK1 complex solution, PDH/hPDHK1 complex solution (20 μL), test compound (1.5 μL) and 0.353 μmol/L ATP (diluted with assay buffer) (8.5 μL) were added to a 384 well microplate (Greiner Bio-One 781801) and PDHK reaction was performed at room temperature for 45 min (test compound well). DMSO (1.5 μL) was added to control wells instead of test compound. In addition, DMSO (1.5 μL) was added to blank wells instead of the test compound, and PDH solution was added instead of the PDH/hPDHK1 complex solution. […]

In another assay the target is human PDHK2 (hPDHK2) (Homo sapiens (Human), UniProt Q15119). Nature of the assay: Inhibitory action of PDHK2 activity in vitro (residual PDH activity after PDHK reaction). It is filed as biochemical. The conditions noted are these: for IC50: PDH/hPDHK2 complex solution, PDHK reaction at room temperature for 45 min, NADH absorbance at 340 nm, read-out: kPDK2 IC50. The method, then: as §1
(Inhibitory Action of PDHK2 Activity)
In the case of human PDHK2 (hPDHK2, NCBI Reference Database Accession number NM_002611.4), modified hPDHK2 cDNA wherein FLAG-Tag sequence was added to the N terminus of hPDHK2 cDNA clone (pReceiver-M01/PDK2-GeneCopoeia) as the base was prepared by PCR and ligated to the NdeI/EcoRI site of pET-17b vector. The recombinant construct was transformed into Escherichia coli DH5a. The recombinant clones were identified, and plasmid DNA was isolated and subjected to the DNA sequence analysis. One clone which had the expected nucleic acid sequence was selected for expression work.
For expression of hPDHK2 activity, Escherichia coli strain BL21(DE3) cells were transformed with the pET17b vector containing modified hPDHK2 cDNA. The Escherichia coli were grown to an optical density 0.6 ([…]) at 30° C. Protein expression was induced by the addition of 500 μmol/L isopropyl-β-thiogalactopyranoside. The Escherichia coli were cultured at 20° C. for 17-18 hr and harvested by centrifugation. The harvested Escherichia coli was resuspended in a suspension buffer (20 mmol/L HEPES-NaOH, 500 mmol/L sodium chloride, 1% ethylene glycol, 0.1% pluronic F-68 (pH 8.0), cOmplete, EDTA-free (pH 8.0)), and disrupted by a microfluidizer. The precipitate was removed by centrifugation and the supernatant was added to DDDDK-tagged Protein PURIFICATION GEL. DDDDK-tagged Protein PURIFICATION GEL was washed with a washing buffer (20 mmol/L HEPES-NaOH, 500 mmol/L sodium chloride, 1% ethylene glycol, 0.1% pluronic F-68 (pH 8.0)) and the bound protein was eluted with elution buffer 1 (20 mmol/L HEPES-NaOH, 100 μg/mL peptide (amino acid sequence DYKDDDDK) (SEQ ID NO: 1), 500 mmol/L sodium chloride, 1% ethylene glycol, 0.1% pluronic F-68 (pH 8.0)). The eluted fractions containing FLAG-Tagged protein were pooled, concentrated by an ultrafiltration method, added to a gel filtration column (HiLoad 26/60 Superdex 200), and eluted with elution buffer 2 (20 mmol/L HEPES-NaOH, 150 mmol/L sodium chloride, 0.5 mmol/L ethylenediaminetetraacetic acid (EDTA), 1% ethylene glycol, 0.1% pluronic F-68 (pH 8.0)). The eluted fractions were pooled and preserved at −80° C.
0.025 U/mL PDH and 0.5 μg/mL hPDHK2 were mixed in an assay buffer (50 mmol/L 3-morpholinopropanesulfonic acid (pH 7.0), 20 mmol/L dipotassium hydrogen phosphate, 60 mmol/L potassium chloride, 2 mmol/L magnesium chloride, 0.4 mmol/L EDTA, 0.2% poloxamer, 2 mmol/L dithiothreitol), and the mixture was incubated at 4° C. overnight to obtain a PDH/hPDHK2 complex solution. In the assay buffer, 0.025 U/mL PDH was mixed and incubated at 4° C. overnight to prepare a PDH solution.
The test compounds were diluted with DMSO. To measure an inhibitory action of the test compound on the PDHK activity in the PDH/hPDHK2 complex solution, PDH/hPDHK2 complex solution (20 μL), test compound (1.5 μL) and 1.06 μmol/L ATP (diluted with assay buffer) (8.5 μL) were added to a 384 well microplate and PDHK reaction was performed at room temperature for 45 min (test compound well). DMSO (1.5 μL) was added to control wells instead of test compound. In addition, DMSO (1.5 μL) was added to blank wells instead of the test compound, and PDH solution was added instead of the PDH/hPDHK2 complex solution. To measure an inhibitory action of the test compound on the PDHK activity inherent in the PDH solution, a test compound was added and the PDH solution instead of the PDH/hPDHK2 complex solution was added to a blank+test compound well.
Then, 10 μL of substrates (5 mmol/L sodium pyruvate, 5 mmol/L Coenzyme A, 12 mmol/L NAD, 5 mmol/L thiamine pyrophosphate, diluted with assay buffer) were added. The mixture was incubated at room temperature for 90 min, and the residual PDH activity was measured. […]

SMILES strings stand for the structures. Bounds are passed on as bounds.

human PDHK1 (hPDHK1), sequence (Q15118 29-436): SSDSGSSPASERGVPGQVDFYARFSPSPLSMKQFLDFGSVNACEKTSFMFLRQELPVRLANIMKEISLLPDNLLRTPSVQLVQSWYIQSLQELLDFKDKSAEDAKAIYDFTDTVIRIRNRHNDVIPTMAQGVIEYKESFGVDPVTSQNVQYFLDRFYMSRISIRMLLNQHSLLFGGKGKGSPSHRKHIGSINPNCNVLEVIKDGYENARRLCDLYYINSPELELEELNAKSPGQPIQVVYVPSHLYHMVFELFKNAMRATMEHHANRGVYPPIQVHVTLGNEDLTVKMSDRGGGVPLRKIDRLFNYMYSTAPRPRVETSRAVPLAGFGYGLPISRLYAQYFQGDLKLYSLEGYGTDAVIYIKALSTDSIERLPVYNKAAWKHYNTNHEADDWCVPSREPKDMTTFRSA

Turning to `C[C@H]1CN(C(=O)c2cc(-c3ccc(C#N)cc3)nn2C2CC2)Cc2cnc([C@@](C)(O)C(F)(F)F)n21` [Example 35], the IC50 (as a rule, the concentration needed to halve the response being measured) at human PDHK1 (hPDHK1) came out at 3 nM; at human PDHK2 (hPDHK2), 4 nM.
The corresponding values for `C[C@H]1CN(C(=O)c2cc(C3CC3)nn2CC(F)(F)F)Cc2cnc([C@@](C)(O)C(F)(F)F)n21` [Example 36] are 4 nM and 5 nM.
Consider `C[C@H]1CN(C(=O)c2cc(C3CC3)n(CC(F)(F)F)n2)Cc2cnc([C@@](C)(O)C(F)(F)F)n21` [Example 37], for which the results for the IC50 on human PDHK1 (hPDHK1) and at human PDHK2 (hPDHK2) were 3 nM and 8 nM, respectively.
For `C[C@H]1CN(C(=O)c2cccc(-c3ccc(F)cc3)n2)Cc2cnc([C@@](C)(O)C(F)(F)F)n21` [Example 38], the IC50 on human PDHK1 (hPDHK1) was less than 3 nM; at human PDHK2 (hPDHK2), 4 nM. The inhibition at 0.003 µM at human PDHK1 (hPDHK1) was 73%.
For the compound `C[C@H]1CN(C(=O)c2ncccc2-c2ccc(F)cc2)Cc2cnc([C@@](C)(O)C(F)(F)F)n21` [Example 39], the results for the IC50 at human PDHK1 (hPDHK1) and on human PDHK2 (hPDHK2) were 46 nM and 18 nM, respectively.
The corresponding values for `C[C@H]1CN(C(=O)c2c(Cl)c(-c3ccc(C#N)cc3)nn2C)Cc2cnc([C@@](C)(O)C(F)(F)F)n21` [Example 40, 4-(4-chloro-1-methyl-5-((S)-5-methyl-3-((R)-1,1,1-trifluoro-2-hydroxypropan-2-yl)-5,6,7,8-tetrahydroimidazo[1,5-a]pyrazine-7-carbonyl)-1H-pyrazol-3-yl)benzonitrile] are 5 nM and 6 nM.
The matching figures for `C[C@H]1CN(C(=O)c2nn(C)c(-c3ccc(C#N)cc3)c2Cl)Cc2cnc([C@@](C)(O)C(F)(F)F)n21` [Example 41]: 6 nM and 6 nM.
The matching figures for `C[C@H]1CN(C(=O)c2ccc(-c3ccc(F)cc3)cn2)Cc2cnc([C@@](C)(O)C(F)(F)F)n21` [Example 42]: 4 nM and 5 nM.
Take `C[C@H]1CN(C(=O)c2cccc(-c3ccc(C#N)cc3)n2)Cc2cnc([C@@](C)(O)C(F)(F)F)n21` [Example 43]: the IC50 was less than 3 nM at human PDHK1 (hPDHK1) and 5 nM at human PDHK2 (hPDHK2). In addition, the inhibition at 0.003 µM at human PDHK1 (hPDHK1) is 52%.
Regarding `C[C@H]1CN(C(=O)c2cc(-c3ccc(S(C)(=O)=O)cc3)nn2C)Cc2cnc([C@@](C)(O)C(F)(F)F)n21` [Example 44], the results for the IC50 on human PDHK1 (hPDHK1) and at human PDHK2 (hPDHK2) were 5 nM and 7 nM, respectively.
As for `C[C@H]1CN(C(=O)c2ccc(-c3ccc(C#N)cc3)cn2)Cc2cnc([C@@](C)(O)C(F)(F)F)n21` [Example 45], the IC50 at human PDHK1 (hPDHK1) came to 9 nM; on human PDHK2 (hPDHK2) it was 8 nM.
The matching figures for `Cc1nc(-c2ccc(C#N)cc2)oc1C(=O)N1Cc2cnc([C@@](C)(O)C(F)(F)F)n2[C@@H](C)C1` [Example 46]: 5 nM and 5 nM.
Turning to `C[C@H]1CN(C(=O)c2cc(-c3ccc(F)cc3F)nn2C)Cc2cnc([C@@](C)(O)C(F)(F)F)n21` [Example 47], at human PDHK1 (hPDHK1), the IC50 was less than 3 nM and the inhibition at 0.003 µM was 53%. Besides, the IC50 on human PDHK2 (hPDHK2) turned out to be 4 nM.
For `C[C@H]1CN(C(=O)c2ccnc(-c3ccc(F)cc3)c2)Cc2cnc([C@@](C)(O)C(F)(F)F)n21` [Example 48, (2-(4-fluorophenyl)pyridin-4-yl)((S)-5-methyl-3-((R)-1,1,1-trifluoro-2-hydroxypropan-2-yl)-5,6-dihydroimidazo[1,5-a]pyrazin-7(8H)-yl)methanone], at human PDHK1 (hPDHK1), the IC50 is less than 3 nM and the inhibition at 0.003 µM was 88%. For the same compound, the IC50 at human PDHK2 (hPDHK2) was less than 3 nM. The “hPDHK2 inhibitory rate at the lowest concentration of the test compound” value at human PDHK2 (hPDHK2) (lowest concentration of the test compound in the assay (<3 nmol/L), shown when IC50 value could not be calculated) is recorded as 81%.
Consider `C[C@H]1CN(C(=O)c2cccc(-c3ccccn3)c2)Cc2cnc([C@@](C)(O)C(F)(F)F)n21` [Example 49], for which the IC50 on human PDHK1 (hPDHK1) and on human PDHK2 (hPDHK2) was 3 nM each time.
With `C[C@H]1CN(C(=O)c2cc(-c3ccc(C#N)cc3F)nn2C)Cc2cnc([C@@](C)(O)C(F)(F)F)n21` [Example 50], the figures for the IC50 on human PDHK1 (hPDHK1) and at human PDHK2 (hPDHK2) were 4 nM and 5 nM, respectively.
The matching figures for `C[C@H]1CN(C(=O)c2ccc(C3(O)CCC3)cc2)Cc2cnc([C@@](C)(O)C(F)(F)F)n21` [Example 51]: 4 nM and 6 nM.
